Source: US20070202079A1, “Therapeutic compositions and methods useful in modulating protein tyrosine phosphatases” (priority 2006, published 2007)

What was measured:
SHP-1 = molecular target: T1, SHP-1 (Mus musculus, UniProt P29351); assay: in vitro PTPase assay, GST/SHP-1; format: biochemical; conditions: for inhibitory activity against SHP-1: 3-4 μg/ml or 10-100 μg/ml
T1 construct: made in house
Procedure: In vitro PTPase activities were measured using the commercial protein tyrosine phosphatase assay kit (Upstate Biotechnology, Inc. (“UBI”)) following established procedure known to one of skill in the art. […] Briefly, 0.01 μg of GST/PTPase fusion proteins was incubated in 50 μl of Tris buffer (10 mM Tris, pH 7.4) containing different concentrations of inhibitors or chemicals (0-1,000 μg/ml) at 22° C. for 10 minutes, followed by addition of 0.2 mM of the phosphotyrosine peptide and incubation at 22° […] 100 μl of Malachite Green solution was added and incubated for 5 minutes, and the absorbance at 660 nm was measured after 5 minutes.
To assess the reversibility of inhibition of SHP-1 by PTPase inhibitors, GST/SHP-1 fusion protein bound on glutathione beads were pre-incubated in cold Tris buffer or Tris buffer containing the PTPase inhibitors at 4° C. for 30 minutes. The beads were then either subjected to in vitro PTPase assays or washed 3 times in Tris buffer then subjected to in vitro PTPase assays.
Briefly, individual PTPases (0.1 μg/reaction) in 50 μL of PTPase buffer (50 mM Tris, pH 7.4) were incubated at 22° C. for 10 minutes or as indicated in the absence or presence of inhibitory compounds. Substrates (0.2 mM phosphotyrosine peptide) were then added and allowed to react at 22° C. for 18 hrs. PTPase activity of individual reactions was measured by adding 100 μL of malachite green solution (UBI) and then quantifying the amounts of free phosphate cleaved by the PTPase from the peptide substrate by spectrometry (OD660 nm). […] Relative PTPase activities were calculated based on the formula: (PTPase activity in the presence of an inhibitory compound/PTPase activity in the absence of the compound)× 100%. To assess the reversibility of PTPase inhibition, GST fusion proteins of the PTPases bound on glutathione beads (Pharmacia) were pre-incubated with cold Tris buffer (50 mM Tris, pH 7.0) or Tris buffer containing the inhibitor at 4° C. for 30 minutes. The beads were then washed three times in cold Tris buffer or not washed prior to subjecting to in vitro PTPase assays.

PRL-1 = molecular target: T2, PRL-1 (Homo sapiens, UniProt Q93096); assay: in vitro PTPase assay, recombinant PRL-1; format: biochemical; conditions: 0.1-100 μg/ml
T2 construct: cDNAs of human PRL-1, PRL-2 and PRL-3 coding region were derived by RT-PCR; made in house; host or cells: DH5a bacteria (E. coli)
T2 sequence (Q93096 whole entry): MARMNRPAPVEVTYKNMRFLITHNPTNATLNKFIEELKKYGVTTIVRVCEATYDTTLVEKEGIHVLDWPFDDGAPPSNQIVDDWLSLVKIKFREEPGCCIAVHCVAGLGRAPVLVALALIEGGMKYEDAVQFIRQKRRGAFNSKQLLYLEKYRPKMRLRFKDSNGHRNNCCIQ
Source text: (§1) Sodium stibogluconate, suramin, sodium orthovanadate and GST fusion protein of SHP-1 have been described previously (Pathak et al., J. Immunol. 167, 3391 (2001)). Meglumine antimonate was obtained from Aventis. cDNAs of human PRL-1, PRL-2 and PRL-3 coding region were derived by RT-PCR from H9 cells (Safai, et al., Lancet 1, 1438 (1984)) and inserted in frame into the pGEX vector. cDNA of PRL-1R86 was generated by recombinant DNA technique using PRL-1 cDNA as template following established procedures (Jiao, et al., Mol. Cell. Biol. 16, 6985 (1996)). […]
(§2) In vitro PTPase assays were used to determine the effects of compounds on recombinant PTPases, following established procedures using a synthetic phosphotyrosine peptide or DiFMUP as the substrate (Pathak et al., J. Immunol. 167, 3391 (2001)). […] PTPase activity of individual reactions was measured by adding 100 μL of malachite green solution (UBI) and then quantifying the amounts of free phosphate cleaved by the PTPase from the peptide substrate by spectrometry (OD660 nm). […] Relative PTPase activities were calculated based on the formula: (PTPase activity in the presence of an inhibitory compound/PTPase activity in the absence of the compound)× 100%. […]

PRL-2 = molecular target: T3, PRL-2 (Homo sapiens, UniProt Q12974); assay: in vitro PTPase assay, recombinant PRL-2; format: biochemical
T3 construct: cDNAs of human PRL-1, PRL-2 and PRL-3 coding region were derived by RT-PCR; made in house; host or cells: DH5a bacteria (E. coli)
T3 sequence (Q12974 whole entry): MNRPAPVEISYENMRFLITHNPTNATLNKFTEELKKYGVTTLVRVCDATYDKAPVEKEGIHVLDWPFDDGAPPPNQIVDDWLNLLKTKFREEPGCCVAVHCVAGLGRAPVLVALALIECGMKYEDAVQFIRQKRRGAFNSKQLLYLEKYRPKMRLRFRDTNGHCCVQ
Source text: as §1, §2

PRL-3 = molecular target: T4, PRL-3 (Homo sapiens, UniProt O75365); assay: in vitro PTPase assay, recombinant PRL-3; format: biochemical; conditions: for remaining PRL-3 PTPase activity: 0.1-100 μg/ml
T4 construct: cDNAs of human PRL-1, PRL-2 and PRL-3 coding region were derived by RT-PCR; made in house; host or cells: DH5a bacteria (E. coli)
T4 sequence (O75365 whole entry): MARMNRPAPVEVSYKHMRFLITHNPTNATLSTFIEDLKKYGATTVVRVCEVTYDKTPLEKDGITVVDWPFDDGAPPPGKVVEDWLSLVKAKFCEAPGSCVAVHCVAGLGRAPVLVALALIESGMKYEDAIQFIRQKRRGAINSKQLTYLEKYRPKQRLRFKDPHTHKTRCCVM
Source text: Sodium stibogluconate, suramin, sodium orthovanadate and GST fusion protein of SHP-1 have been described previously (Pathak et al., J. Immunol. 167, 3391 (2001)). Meglumine antimonate was obtained from Aventis. cDNAs of human PRL-1, PRL-2 and PRL-3 coding region were derived by RT-PCR from H9 cells (Safai, et al., Lancet 1, 1438 (1984)) and inserted in frame into the pGEX vector. cDNA of PRL-1R86 was generated by recombinant DNA technique using PRL-1 cDNA as template following established procedures (Jiao, et al., Mol. Cell. Biol. 16, 6985 (1996)). GST fusion proteins of the PRL phosphatases were prepared from DH5a bacteria transformed with the pGEX fusion protein constructs as described previously (Yi, et al., Mol. Cell. Biol. 12, 836 (1992)). cDNAs encoding the PRLs tagged at the N-termini with the Flag epitope (Castrucci, et al., J. Virol. 66, 4647 (1992)) were generated via recombinant DNA technique, sequenced to confirm their identities and cloned into the pBabepuro vector (Yang, et al., Blood 91, 3746 (1998)). Anti-Flag monoclonal antibody (M2, Sigma) was purchased from a commercial source. A synthetic phosphotyrosine peptide (Arg-Arg-Leu-Ile-Glu-Asp-Ala-Gle-Tyr-Al- -a-Ala-Arg-Gly (SEQ ID NO: 3), wherein the tyrosine is phosphorylated; UBI) and DiFMUP (6, 8-difluoro-4-methylumbelliferyl phosphate, Molecular Probes) were purchased as substrates for PTPase assays.
In vitro PTPase assays were used to determine the effects of compounds on recombinant PTPases, following established procedures using a synthetic phosphotyrosine peptide or DiFMUP as the substrate (Pathak et al., J. Immunol. 167, 3391 (2001)). Briefly, individual PTPases (0.1 μg/reaction) in 50 μL of PTPase buffer (50 mM Tris, pH 7.4) were incubated at 22° C. for 10 minutes or as indicated in the absence or presence of inhibitory compounds. Substrates (0.2 mM phosphotyrosine peptide) were then added and allowed to react at 22° C. for 18 hrs. PTPase activity of individual reactions was measured by adding 100 μL of malachite green solution (UBI) and then quantifying the amounts of free phosphate cleaved by the PTPase from the peptide substrate by spectrometry (OD660 nm). PTPase assays using DiFMUP as a substrate were conducted following a previously described procedure (Matter, et al., Biochem. Biophys. Res. Comm. 283, 1061 (2001)). Relative PTPase activities were calculated based on the formula: (PTPase activity in the presence of an inhibitory compound/PTPase activity in the absence of the compound)× 100%. To assess the reversibility of PTPase inhibition, GST fusion proteins of the PTPases bound on glutathione beads (Pharmacia) were pre-incubated with cold Tris buffer (50 mM Tris, pH 7.0) or Tris buffer containing the inhibitor at 4° C. for 30 minutes. The beads were then washed three times in cold Tris buffer or not washed prior to subjecting to in vitro PTPase assays.

GSTm8 = assay: in vitro PTPase assay, GSTm8; format: biochemical; conditions: 3-4 μg/ml or 10-100 μg/ml
Source text: In vitro PTPase assays were used to determine the effects of levamisole (Sigma), pentamidine (American Pharmaceutical Partners, Inc.), and ketoconazole (Sigma) on recombinant PTPases, following established procedures (Pathak et al., J. Immunol. 167, 3391 (2001); Pathak et al., Leukemia 16, 2285 (2002), Yi et al., J. Immunol. 169, 5978 (2002)) using a synthetic phosphotyrosine peptide or DiFMUP as the substrate as detailed above in section I.A.2.

C42 = C42 cell growth, MTT; format: cell-based, human
Procedure: For cell proliferation assays, cells were grown in 10% FCS culture medium containing various amounts of IFNs and/or sodium stibogluconate in 96 well plates and cultured at 37° C. for 3 or 6 days as indicated. The numbers of viable cells in proliferation assays were determined by MTT assays as described in Phatak et al., J. Immunol. 167, 3391 (2001).

inhibitory activity against SHP-1 (SHP-1) | retained PRL-1 PTPase activity (PRL-1) | activity against PRL-2 (PRL-2) | remaining PRL-3 PTPase activity (PRL-3) | inhibitory activity against GSTm8 (GSTm8) | SMILES | activity of parental mixture against recombinant SHP-1 (SHP-1; Sb concentration of 10 μg/ml) | inhibition of GST/SHP-1 after washing (reversibility) (SHP-1; pre-incubated 30 min at 4 °C, beads washed 3 times) | sensitivity of C42 cells (C42) | inhibition of PRL-3 after washing (PRL-3) | inactivation of PRL-3 with prolonged pre-incubation (PRL-3; 10 μg/ml, pre-incubation 30 or 60 minutes)
no obvious inhibitory activity | 70-80% | not effective | 20-30% | no obvious inhibitory activity | N=C(N)c1ccc(OCCCCCOc2ccc(C(=N)N)cc2)cc1 [pentamidine] |  |  |  |  | 
 |  |  |  |  | O.O.O.O.O.O.O.O.O.O=C([O-])[C@@H]1[O][Sb]2([O-])([O][Sb]34([OH])[O][C@H]([C@H](O)CO)[C@H]([O]3)[C@H](C(=O)[O-])[O]4)[O][C@H]([C@H](O)CO)[C@@H]1[O]2.[Na+].[Na+].[Na+] [sodium stibogluconate] | inactivated SHP-1 | not affected by washing | highly resistant | not relieved by a washing process | nearly complete inactivation
no obvious inhibitory activity | 60-70% | not effective | 25-40% | no obvious inhibitory activity | CC(=O)N1CCN(c2ccc(OCC3COC(Cn4ccnc4)(c4ccc(Cl)cc4Cl)O3)cc2)CC1 (stereo not drawn) [ketoconazole] |  |  |  |  | 
